# Measured values: patent US8470334B2, “Method of inducing an antiviral immune response against HIV-1 utilizing chimeric HIV Env proteins comprising CD4 mini-proteins or CD4 mimetics” (Novartis Vaccines & Diagnostics, Inc, priority 2002, dated 2013)
# Target: gp120 (Human immunodeficiency virus type 1 group M subtype B, UniProt P04578)
# Assay: competitive ELISA of gp120 binding
# Design: species or system HIV-1
# Details: as compared to previous double mutant (CD4M8)
# Source text: In a second step, each putatively active side chain of the miniprotein was replaced by an Ala residue (“Ala scanning”).
smiles,measurement,value
CC(C)C[C@@H]1NC(=O)CNC(=O)[C@H](CC(C)C)NC(=O)[C@H](CO)NC(=O)[C@H](CCCCN)NC(=O)[C@@H]2CSSC[C@@H](C(=O)NCC(=O)N3CCC[C@H]3C(=O)O)NC(=O)[C@H](C)NC(=O)[C@@H]3CSSC[C@H](NC(=O)[C@H](CCCNC(=N)N)NC(=O)[C@H](C)NC(=O)[C@H](CC(C)C)NC(=O)[C@H](CC(N)=O)NC(=O)[C@@H](N)CSSC[C@H](NC(=O)[C@H](CCCCN)NC(=O)CNC(=O)[C@H](CC(C)C)NC1=O)C(=O)N[C@@H](C)C(=O)NCC(=O)N[C@@H](CO)C(=O)N[C@@H](Cc1ccccc1)C(=O)N3)C(=O)N[C@@H](CCC(N)=O)C(=O)N[C@@H](CC(C)C)C(=O)N[C@@H](CCCNC(=N)N)C(=O)N2 [CD4M9],further increase of binding affinity,ten-fold
